# Data as given in article PMC7979765, “trans-Translation inhibitors bind to a novel site on the ribosome and clear Neisseria gonorrhoeae in vivo” (Nature Communications, 2021).
# Values joined by “and” are separate entries in the source; they are usually repeats but may differ in a detail not shown here. Equal values may be shown once.
# Columns and labels:
# [1] = tested on: Neisseria gonorrhoeae; assay: MIC, microbroth dilution, G77L medium; assay type: cell-based; conditions: Neisseria gonorrhoeae ATCC 49226; source data, individual replicates
# [2] = tested on: HeLa cells; assay: Mammalian cell cytotoxicity (CC50); assay type: cell-based, human; conditions: HeLa, replicates
# Procedure: The half maximal cytotoxic concentration (CC50) of each compound against HeLa cells (ATCC CCL-2) was measured as previously described. […] The mean values for each biological replicate were averaged, and the CC50 was determined using a 4-parameter nonlinear curve fitting algorithm (GraphPad Prism). The average of the CC50s from two biological replicates was calculated and reported.
# [3] = Liver microsome stability, murine; assay type: in vitro ADME, mouse; conditions: for Average MLMS t½ / MLMS t½: murine liver microsomes; for Average MLMS t½: average of replicates; for MLMS t½: individual replicates
# Procedure: To examine potential for first-pass metabolism of analogs in the liver, the stability of analogs in the presence of liver microsome preparations (Eurofins Discovery for human, dog and rat; Xenotech for mouse) was measured using the method of Kuhnz, et al.[50]. for murine studies and Oback for the dog, human and rat studies. The amount of parent compound remaining after incubation with microsomes in the presence of NADPH over a 30 min time range was measured using a reverse-phase liquid chromatography/mass spectroscopy method that was customized for each compound. Half-lives were calculated using linear regression analysis of several time points.
# [4] = Aqueous solubility (nephelometric); assay type: physicochemical; conditions: for Solubility: single replicates
# [5] = tested on: Escherichia coli; assay: microbe, parasite or virus in culture; assay type: cell-based; conditions: E. coli KLE701 (ΔtolC::tet); source data, individual replicates
# [6] = tested on: HeLa cells; assay: Mammalian cell cytotoxicity (CC50); assay type: cell-based, human; conditions: one value per replicate
# [7] = tested on: trans-translation; assay: microbe, parasite or virus in culture; assay type: cell-based, Escherichia coli; conditions: Eco Luc reporter, one value per replicate; read-out: IC50
# Procedure: To verify that MBX-4132 retains activity as an inhibitor of trans-translation, we measured its dose-dependent activity against the non-stop luciferase reporter assay strain E. coli SB75 ΔtolC::kan (pluc-trpAt) essentially as described, with modifications. Briefly, serial 1.5-fold dilutions of MBX-4132 in DMSO were transferred to 96-well assay plates (Costar 3195), followed by the addition of 50 µl of an overnight culture of SB75 ΔtolC::kan (pluc-trpAt) that had been diluted to a final OD600 of 0.4 with LB media supplemented with 100 µg ampicillin/ml and 1 mM IPTG. […] The assay plates were incubated at room temperature for 2 h, and 50 µl of BrightGlo (Promega) bioluminescence reagent was added to each well. After 10 min incubation, bioluminescence intensity was measured using an Envision multi-label plate reader (Perkin Elmer). Each assay comprised three technical replicates, and the experiment was repeated three times. The fold induction for each MBX-4132 treated sample as compared to the DMSO-only sample was calculated for each technical replicate, and the average and standard deviation of the three technical was calculated. The IC50 was determined using a 4-parameter nonlinear curve fitting algorithm (GraphPad Prism).
Compound,MIC [1],NORMALIZED DATA (Fraction DMSO Control) ([2]; [CMPD] 0.78125 µM),NORMALIZED DATA (Fraction DMSO Control) ([2]; [CMPD] 1.5625 µM),NORMALIZED DATA (Fraction DMSO Control) ([2]; [CMPD] 3.125 µM),NORMALIZED DATA (Fraction DMSO Control) ([2]; [CMPD] 6.25 µM),NORMALIZED DATA (Fraction DMSO Control) ([2]; [CMPD] 12.5 µM),NORMALIZED DATA (Fraction DMSO Control) ([2]; [CMPD] 25 µM),NORMALIZED DATA (Fraction DMSO Control) ([2]; [CMPD] 50 µM),NORMALIZED DATA (Fraction DMSO Control) ([2]; [CMPD] 100 µM),Average MLMS t½ [3],MLMS t½ [3],Average solubility [4],Solubility [4],MIC [5],CC50 [6],other results
O=C(Nc1nnc(-c2ccc(F)cc2)o1)N1CCCC1 [MBX-4346],3.453 µg/mL,1.217 Fraction DMSO Control and 0.9631 Fraction DMSO Control and 1.029 Fraction DMSO Control,1.148 Fraction DMSO Control and 0.9904 Fraction DMSO Control and 1.014 Fraction DMSO Control,1.14 Fraction DMSO Control and 1.021 Fraction DMSO Control and 1.0883 Fraction DMSO Control,1.122 Fraction DMSO Control and 0.9837 Fraction DMSO Control and 1.041 Fraction DMSO Control,1.103 Fraction DMSO Control and 1.043 Fraction DMSO Control and 1.0247 Fraction DMSO Control,1.033 Fraction DMSO Control and 0.9838 Fraction DMSO Control and 0.9917 Fraction DMSO Control,0.972 Fraction DMSO Control and 0.8011 Fraction DMSO Control and 0.809 Fraction DMSO Control,0.8767 Fraction DMSO Control and 0.7312 Fraction DMSO Control and 0.7411 Fraction DMSO Control,25 min,30.1 min and 20.5 min,>200 µM,>200 µM,27.6271 µg/mL,≥ 100 µM,liver microsome stability (in words) [3]: limited
O=C(Nc1nnc(-c2ccccc2)o1)c1ccc(Cl)cc1 [MBX-3910],0.2341 µg/mL and 0.1172 µg/mL,1.08 Fraction DMSO Control and 1.097 Fraction DMSO Control and 1.14 Fraction DMSO Control and 1.04 Fraction DMSO Control and 1.054 Fraction DMSO Control and 1.05 Fraction DMSO Control,1.101 Fraction DMSO Control and 1.0991 Fraction DMSO Control and 1.152 Fraction DMSO Control and 1.073 Fraction DMSO Control and 1.065 Fraction DMSO Control and 1.0674 Fraction DMSO Control,1.088 Fraction DMSO Control and 1.064 Fraction DMSO Control and 1.13 Fraction DMSO Control and 1.029 Fraction DMSO Control and 1.037 Fraction DMSO Control and 1.067 Fraction DMSO Control,1.079 Fraction DMSO Control (2×) and 1.139 Fraction DMSO Control and 1.051 Fraction DMSO Control and 1.03 Fraction DMSO Control and 1.024 Fraction DMSO Control,1.036 Fraction DMSO Control and 1.056 Fraction DMSO Control and 1.0972 Fraction DMSO Control and 1.011 Fraction DMSO Control and 0.9941 Fraction DMSO Control and 0.9999 Fraction DMSO Control,0.7722 Fraction DMSO Control and 0.7686 Fraction DMSO Control and 0.9894 Fraction DMSO Control and 0.8554 Fraction DMSO Control and 0.8395 Fraction DMSO Control and 0.8785 Fraction DMSO Control,0.4225 Fraction DMSO Control and 0.4189 Fraction DMSO Control and 0.8248 Fraction DMSO Control and 0.6289 Fraction DMSO Control and 0.6212 Fraction DMSO Control and 0.6018 Fraction DMSO Control,0.1921 Fraction DMSO Control and 0.2466 Fraction DMSO Control and 0.6012 Fraction DMSO Control and 0.4687 Fraction DMSO Control and 0.4717 Fraction DMSO Control and 0.4092 Fraction DMSO Control,5 min,5 min,12.5 µM,12.5 µM,0.9366 µg/mL,42.1 µM and 40.9 µM and > 100 µM and 36.7 µM and 35.8 µM and 41 µM,–
O=C(Nc1nnc(-c2ccc(F)cc2)o1)c1ccccc1 [MBXC-4227],–,0.9526 Fraction DMSO Control and 0.9482 Fraction DMSO Control and 0.9778 Fraction DMSO Control and 0.9357 Fraction DMSO Control and 0.9509 Fraction DMSO Control and 0.9608 Fraction DMSO Control,0.9867 Fraction DMSO Control and 1.034 Fraction DMSO Control and 1.028 Fraction DMSO Control and 0.9667 Fraction DMSO Control and 0.9674 Fraction DMSO Control and 0.99 Fraction DMSO Control,1.005 Fraction DMSO Control and 1.004 Fraction DMSO Control and 0.9736 Fraction DMSO Control and 0.9997 Fraction DMSO Control and 1.016 Fraction DMSO Control and 1.006 Fraction DMSO Control,0.9644 Fraction DMSO Control and 0.9925 Fraction DMSO Control and 0.9938 Fraction DMSO Control and 0.9804 Fraction DMSO Control and 0.9921 Fraction DMSO Control and 0.9636 Fraction DMSO Control,0.8938 Fraction DMSO Control and 0.856 Fraction DMSO Control and 0.8425 Fraction DMSO Control and 0.8596 Fraction DMSO Control and 0.8611 Fraction DMSO Control and 0.8593 Fraction DMSO Control,0.9039 Fraction DMSO Control and 0.9304 Fraction DMSO Control and 0.9129 Fraction DMSO Control and 0.9236 Fraction DMSO Control and 0.9122 Fraction DMSO Control and 0.9801 Fraction DMSO Control,0.7944 Fraction DMSO Control and 0.8334 Fraction DMSO Control and 0.7734 Fraction DMSO Control and 0.7887 Fraction DMSO Control and 0.7582 Fraction DMSO Control and 0.8061 Fraction DMSO Control,0.6978 Fraction DMSO Control and 0.688 Fraction DMSO Control and 0.6756 Fraction DMSO Control and 0.7089 Fraction DMSO Control and 0.7199 Fraction DMSO Control and 0.7396 Fraction DMSO Control,–,–,–,–,–,≥ 100 µM,–
CN(C(=O)c1ccc(Cl)cc1)c1nnc(-c2ccc(F)cc2)o1 [MBX-4076],2.073 µg/mL,–,–,–,–,–,–,–,–,–,–,<3.1 µM,3.1 µM and <3.1 µM (2×),8.293 µg/mL and 4.147 µg/mL and 2.073 µg/mL,≥ 100 µM,[…] (Fraction DMSO Control) ([2]; [CMPD] 0.78125 µM): 1.197 Fraction DMSO Control and 0.943 Fraction DMSO Control and 1.027 Fraction DMSO Control; […] (Fraction DMSO Control) ([2]; [CMPD] 1.5625 µM): 1.13 Fraction DMSO Control and 0.9796 Fraction DMSO Control and 1.003 Fraction DMSO Control; […] (Fraction DMSO Control) ([2]; [CMPD] 3.125 µM): 1.12 Fraction DMSO Control and 0.9889 Fraction DMSO Control and 1.051 Fraction DMSO Control; […] (Fraction DMSO Control) ([2]; [CMPD] 6.25 µM): 1.086 Fraction DMSO Control and 0.9295 Fraction DMSO Control and 1.003 Fraction DMSO Control; […] (Fraction DMSO Control) ([2]; [CMPD] 12.5 µM): 1.084 Fraction DMSO Control and 0.9742 Fraction DMSO Control and 1.016 Fraction DMSO Control; […] (Fraction DMSO Control) ([2]; [CMPD] 25 µM): 1.061 Fraction DMSO Control and 0.9434 Fraction DMSO Control and 0.9966 Fraction DMSO Control; […] (Fraction DMSO Control) ([2]; [CMPD] 50 µM): 1.042 Fraction DMSO Control and 0.8579 Fraction DMSO Control and 0.8811 Fraction DMSO Control; […] (Fraction DMSO Control) ([2]; [CMPD] 100 µM): 0.7388 Fraction DMSO Control and 0.6179 Fraction DMSO Control and 0.6661 Fraction DMSO Control
O=C(Nc1nnco1)c1ccc(Cl)cc1 [MBX-4367],11.181 µg/mL,1.189 Fraction DMSO Control and 0.9321 Fraction DMSO Control and 1.018 Fraction DMSO Control,1.137 Fraction DMSO Control and 0.9966 Fraction DMSO Control and 1.019 Fraction DMSO Control,1.148 Fraction DMSO Control and 1.015 Fraction DMSO Control and 1.071 Fraction DMSO Control,1.124 Fraction DMSO Control and 0.9955 Fraction DMSO Control and 1.053 Fraction DMSO Control,1.13 Fraction DMSO Control and 1.055 Fraction DMSO Control and 1.044 Fraction DMSO Control,1.072 Fraction DMSO Control and 0.9837 Fraction DMSO Control and 1.014 Fraction DMSO Control,1.146 Fraction DMSO Control and 0.9608 Fraction DMSO Control and 0.9961 Fraction DMSO Control,0.9043 Fraction DMSO Control and 0.7595 Fraction DMSO Control and 0.7474 Fraction DMSO Control,<5 min,<5 min,–,–,22.362 µg/ml and >=22.362 µg/ml,≥ 100 µM,IC50 [7]: ≥ 25 µM
